One test deals with Hrh3 protein (Rattus norvegicus, UniProt Q5PPG3).
For another test, the target named is Histamine H3 receptor (Homo sapiens, UniProt Q9Y5N1).

Values joined by “and” are separate entries in the source; they are usually repeats but may differ in a detail not shown here. Equal entries are not always repeated.

Chain of Hrh3 protein (Q5PPG3 whole entry): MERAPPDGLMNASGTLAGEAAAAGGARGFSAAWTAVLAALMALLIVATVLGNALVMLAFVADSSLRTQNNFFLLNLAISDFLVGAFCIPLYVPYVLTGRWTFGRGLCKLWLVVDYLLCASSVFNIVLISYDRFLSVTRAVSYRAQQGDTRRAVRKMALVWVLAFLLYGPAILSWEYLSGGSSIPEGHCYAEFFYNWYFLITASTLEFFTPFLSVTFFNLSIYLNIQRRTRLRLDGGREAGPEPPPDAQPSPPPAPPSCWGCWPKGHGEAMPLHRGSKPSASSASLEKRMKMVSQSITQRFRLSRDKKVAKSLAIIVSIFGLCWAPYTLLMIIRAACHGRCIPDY
Chain of Histamine H3 receptor (Q9Y5N1 whole entry): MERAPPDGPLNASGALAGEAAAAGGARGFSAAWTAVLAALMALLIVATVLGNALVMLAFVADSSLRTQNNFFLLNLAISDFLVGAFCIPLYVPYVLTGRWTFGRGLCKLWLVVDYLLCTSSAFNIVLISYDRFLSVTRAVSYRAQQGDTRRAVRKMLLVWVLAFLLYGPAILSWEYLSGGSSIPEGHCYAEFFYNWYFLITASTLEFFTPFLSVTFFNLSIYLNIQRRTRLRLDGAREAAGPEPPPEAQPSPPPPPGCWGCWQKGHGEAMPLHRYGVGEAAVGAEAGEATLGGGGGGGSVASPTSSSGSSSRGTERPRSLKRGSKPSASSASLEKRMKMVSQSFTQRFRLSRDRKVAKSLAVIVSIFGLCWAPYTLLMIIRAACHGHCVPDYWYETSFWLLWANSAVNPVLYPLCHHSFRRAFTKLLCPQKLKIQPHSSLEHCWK

Consider `S=C(NC1CCCCC1)N1CCC(c2cnc[nH]2)CC1`, for which the Ki on Hrh3 protein was 10.2 nM and 4.2 nM.

On to `N=C(N)SCCc1cnc[nH]1` [2-(3H-imidazol-4-yl)ethylsulfanylmethanimidamide], for which the Ki at Histamine H3 receptor came out at 0.6 nM; at Hrh3 protein, 0.2 nM.

With `c1nc(CC2CCNCC2)c[nH]1` [4-(1H-imidazol-4-ylmethyl)piperidine], the Ki at Histamine H3 receptor is 1.6 nM; at Hrh3 protein, 0.5 nM and 1.4 nM.

For the molecule `CN1CCN(C2=c3ccccc3=Nc3ccc(Cl)cc3N2)CC1` [6-chloro-10-(4-methylpiperazin-1-yl)-2,9-diazatricyclo[9.4.0.0^{3,8}]pentadeca-1,3(8),4,6,10,12,14-heptaene], the Ki at Hrh3 protein was 3000 nM and 1750 nM.

For the molecule `CNCCc1c[nH]cn1` [N(alpha)-Methylhistamine], the Ki at Histamine H3 receptor was 2.4 nM; at Hrh3 protein, 1.2 nM and 1.5 nM.

Consider `NCCc1c[nH]cn1` [[3H]histamine], for which the Ki on Hrh3 protein was 12 nM and 13.2 nM.

(Values after BindingDB's records for PubMed 10869375 (R. W. Johnson Pharmaceutical Research Institute, 2000).)
